Consider two compounds from US8318781B2, “G-protein-conjugated receptor agonist” (Japan Science and Technology Agency, priority 2007, dated 2012).

SMILES strings stand for the structures.

The test has as its target T1, human GPR40 (hGPR40) (Homo sapiens, UniProt O14842).
T1 construct: expressed in transfected cells; doxycycline-inducible expression vector
Kind of test: ERK assay, screening for GPR40 ligands in cell line TXGPR40. It is filed as cell-based. The following applies: TXGPR40 cells, class relative to LA; for ERK/GPR40 100 μM: ligand 100 μM.

T1 sequence (O14842 whole entry): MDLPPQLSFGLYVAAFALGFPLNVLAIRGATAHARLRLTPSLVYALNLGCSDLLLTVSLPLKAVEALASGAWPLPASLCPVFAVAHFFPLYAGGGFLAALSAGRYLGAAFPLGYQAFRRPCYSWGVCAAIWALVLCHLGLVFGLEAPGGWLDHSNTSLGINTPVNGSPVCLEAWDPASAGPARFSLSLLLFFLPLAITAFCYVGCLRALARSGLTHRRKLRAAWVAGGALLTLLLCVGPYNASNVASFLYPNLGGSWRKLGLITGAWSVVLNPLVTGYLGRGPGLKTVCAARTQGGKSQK

In the case of `O=C(O)CCCc1ccc(OCCN(c2ccccc2)c2nccs2)cc1` [NCG46], the “ERK/GPR40 100 μM” value was “++ (++ denotes 50 to 100% of LA)”.

Regarding `CN(C)c1ccc(N(CCOc2ccc(CCCC(=O)O)cc2)c2ccccn2)cc1` [NCG54], the “ERK/GPR40 100 μM” value was “++ (++ denotes 50 to 100% of LA)”. Further, the “ERK/GPR40 10 μM” value (ligand 10 μM) is on record as “+ (+ denotes 0 to 100% of LA)”.
